Measurements: patent US7754887B2, “Process for production of sulfoxide derivatives or salts thereof in the amorphous state” (EISAI R&D Management Co., Ltd., priority 2003, dated 2010)

Experiments:
[1] = scan speed 2° C./min, 20 to 120° C.; FIG. 6
[2] = Measurement of specific surface (nitrogen-absorption isotherm, BET method); assay type: physicochemical; conditions: Sodium Salt; for Specific surface: BET method, nitrogen absorption at 77 K after vacuum degassing at 50° C.; for Specific surface, relative comparison: relative to the freeze-dried product
Description: Measurement of Specific Surface:
As for each of amorphous substances of 2-[[4-(3-methoxypropoxy)-3-methylpyridine-2-yl]methylsulfinyl]-1H-benzimidazole sodium salt obtained by freeze-drying (Reference example 2), heat-drying (Example 3), respectively, the nitrogen-absorption isotherms were measured at liquid nitrogen temperature (77 K) by a high accuracy full automatic gas absorption equipment “BELSORP 36” (prepared by Japan Bell) after vacuum degassing at 50° C. These isotherms were analyzed by BET method to obtain the specific surface.

[3] = Measurement of particle size distribution by laser diffractometry (Microtrac X100); assay type: physicochemical; conditions: Sodium Salt; for particle size distribution: Microtrac X100, FIG. 4 and FIG. 5; for 90% cumulative diameter: calculated by measurement of the particle size distribution
Description: The measurement of particle size distribution by laser diffractometry can be conducted, for example, by using “Microtrac X100” (made by Leeds And Northrup). In the case where the particle size distribution of the amorphous substance of sulfoxide derivative (I) or the salt thereof, which is prepared by conducting the above-mentioned heat-drying, is measured by the laser diffractometry, the amorphous substance of sulfoxide derivative (I) or the salt thereof has 50 μm or less, preferably 30 μm or less of average particle diameter, and 80 μm or less, preferably 50 μm or less of 90% cumulative diameter.

SMILES	temperature at which the acetone starts to be effectively decreased [1] [°C]	temperature at which the weight starts to be decreased [1] [°C]	Specific surface [2] [m^2/g]	Specific surface, relative comparison [2]	particle size distribution [3]	90% cumulative diameter [3] [μm]
CC(C)=O.COCCCOc1ccnc(C[S+]([O-])c2nc3ccccc3[n-]2)c1C.[Na+] (stereo not shown) [Acetone Complex of 2-[[4-(3-methoxypropoxy)-3-methylpyridine-2-yl]methylsulfinyl]-1H-benzimidazole Sodium Salt]	≥ 76.7	≥ 65.7				
COCCCOc1ccnc(C[S+]([O-])c2nc3ccccc3[nH]2)c1C.[Na] (stereo not shown) [The freeze-dried product, 2-[[4-(3-methoxypropoxy)-3-methylpyridine-2-yl]methylsulfinyl]-1H-benzimidazole Sodium Salt]			2.3	1.00	broad	192.3
COCCCOc1ccnc(C[S+]([O-])c2nc3ccccc3[nH]2)c1C.[Na] (stereo not shown) [The heat-dried product, 2-[[4-(3-methoxypropoxy)-3-methylpyridine-2-yl]methylsulfinyl]-1H-benzimidazole Sodium Salt]			1.6	0.70	sharp	18.0
